Several values for one entry are separate records, joined by “and”; a condition that tells them apart may be missing. Equal entries are not always repeated.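 Results reflect a 48-hour exposure of cells in 96-well plates to compound at five concentrations. The concentration for 50% growth inhibition is given as GI50. Definition used: TGI = concentration required for complete inhibition of growth.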
What was measured:
Test in all cases: inhibition of tumour cell growth, NCI panel, 48 h
RXF 393 renal = tested on: RXF 393 renal
BT-549 breast = tested on: BT-549 breast
U251 CNS = tested on: U251 CNS
MDA-MB-231 breast = tested on: MDA-MB-231 breast
SK-MEL-28 melanoma = tested on: SK-MEL-28 melanoma
HT29 colon = tested on: HT29 colon
MDA-MB-435 = tested on: MDA-MB-435
K-562 leukemia = tested on: K-562 leukemia
SNB-75 CNS = tested on: SNB-75 CNS
ACHN renal = tested on: ACHN renal
SF-295 CNS = tested on: SF-295 CNS
MCF7 breast = tested on: MCF7 breast
786-0 renal = tested on: 786-0 renal
CAKI-1 renal = tested on: CAKI-1 renal
OVCAR-4 ovarian = tested on: OVCAR-4 ovarian
M14 melanoma = tested on: M14 melanoma
A549 NSCLC = tested on: A549 NSCLC
SF-268 CNS = tested on: SF-268 CNS
KM12 colon = tested on: KM12 colon
EKVX NSCLC = tested on: EKVX NSCLC
LOX IMVI melanoma = tested on: LOX IMVI melanoma
T-47D breast = tested on: T-47D breast
SW-620 colon = tested on: SW-620 colon
TK-10 renal = tested on: TK-10 renal
HOP-92 NSCLC = tested on: HOP-92 NSCLC
UACC-257 melanoma = tested on: UACC-257 melanoma
MOLT-4 leukemia = tested on: MOLT-4 leukemia
MDA-N = tested on: MDA-N
NCI-H226 lung = tested on: NCI-H226 lung
HCT-116 colon = tested on: HCT-116 colon
NCI-H522 lung = tested on: NCI-H522 lung
SN12C renal = tested on: SN12C renal
PC-3 prostate = tested on: PC-3 prostate
CCRF-CEM leukemia = tested on: CCRF-CEM leukemia
HCC-2998 colon = tested on: HCC-2998 colon
SK-MEL-2 melanoma = tested on: SK-MEL-2 melanoma
RPMI-8226 leukemia = tested on: RPMI-8226 leukemia
HL-60(TB) leukemia = tested on: HL-60(TB) leukemia
NCI/ADR-RES ovarian = tested on: NCI/ADR-RES ovarian
DU-145 prostate = tested on: DU-145 prostate
SK-MEL-5 melanoma = tested on: SK-MEL-5 melanoma
SF-539 CNS = tested on: SF-539 CNS
NCI-H460 lung = tested on: NCI-H460 lung
OVCAR-3 ovarian = tested on: OVCAR-3 ovarian
UACC-62 melanoma = tested on: UACC-62 melanoma
SNB-19 CNS = tested on: SNB-19 CNS
SK-OV-3 ovarian = tested on: SK-OV-3 ovarian
NCI-H23 lung = tested on: NCI-H23 lung
A498 renal = tested on: A498 renal
OVCAR-5 ovarian = tested on: OVCAR-5 ovarian
UO-31 renal = tested on: UO-31 renal
SR leukemia = tested on: SR leukemia
OVCAR-8 ovarian = tested on: OVCAR-8 ovarian
COLO 205 colon = tested on: COLO 205 colon
HOP-62 NSCLC = tested on: HOP-62 NSCLC
HCT-15 colon = tested on: HCT-15 colon
IGROV1 ovarian = tested on: IGROV1 ovarian
MALME-3M melanoma = tested on: MALME-3M melanoma
HS 578T breast = tested on: HS 578T breast

COc1ccc(/C=C/C(=O)c2ccccc2)cc1OC
TGI (RXF 393 renal): 48.2 µM and 27.6 µM
TGI (BT-549 breast): 37.5 µM and 35.3 µM
GI50 (U251 CNS): 5.81 µM
TGI (U251 CNS): 21.9 µM and 18.1 µM
TGI (MDA-MB-231 breast): 38.1 µM and 52.6 µM
GI50 (SK-MEL-28 melanoma): 17.6 µM
TGI (SK-MEL-28 melanoma): 38.1 µM and 32 µM
GI50 (HT29 colon): 3.86 µM
TGI (HT29 colon): 22.2 µM and 16.2 µM
GI50 (MDA-MB-435): 6.89 µM
TGI (MDA-MB-435): 14.6 µM and 25.2 µM
GI50 (K-562 leukemia): 3.95 µM
TGI (K-562 leukemia): > 100 µM
GI50 (SNB-75 CNS): 16.7 µM
TGI (SNB-75 CNS): 28.9 µM and 35.1 µM
TGI (ACHN renal): 29.4 µM and 28.5 µM
GI50 (SF-295 CNS): 14.5 µM
TGI (SF-295 CNS): 32.9 µM and 34 µM
GI50 (MCF7 breast): 3.3 µM
TGI (MCF7 breast): 11.8 µM and 13.4 µM
GI50 (786-0 renal): 14.6 µM
TGI (786-0 renal): 17.9 µM and 33.7 µM
GI50 (CAKI-1 renal): 14.1 µM
TGI (CAKI-1 renal): 38.2 µM and 35.6 µM
TGI (OVCAR-4 ovarian): 36.6 µM and 33.3 µM
TGI (M14 melanoma): 30 µM and 29.6 µM
GI50 (A549 NSCLC): 30.5 µM
TGI (A549 NSCLC): 47.7 µM and > 100 µM
GI50 (SF-268 CNS): 19.7 µM
TGI (SF-268 CNS): 36.7 µM and 64.9 µM
GI50 (KM12 colon): 6 µM
TGI (KM12 colon): 10.2 µM and > 100 µM
GI50 (EKVX NSCLC): 17.7 µM
TGI (EKVX NSCLC): 28.7 µM and 35.6 µM
GI50 (LOX IMVI melanoma): 3.32 µM
TGI (LOX IMVI melanoma): 28.1 µM and 14.6 µM
GI50 (T-47D breast): 18.4 µM
TGI (T-47D breast): 48.7 µM and 60.8 µM
TGI (SW-620 colon): > 100 µM and 18.4 µM
GI50 (TK-10 renal): 13.6 µM
TGI (TK-10 renal): 32 µM and 27.8 µM
GI50 (HOP-92 NSCLC): 26.3 µM
TGI (HOP-92 NSCLC): 41 µM and 79.4 µM
TGI (UACC-257 melanoma): 31.7 µM and 31.4 µM
GI50 (MOLT-4 leukemia): 17.9 µM
TGI (MOLT-4 leukemia): > 100 µM
TGI (MDA-N): 15.3 µM
GI50 (NCI-H226 lung): 16.4 µM
TGI (NCI-H226 lung): 53.6 µM and 32.3 µM
GI50 (HCT-116 colon): 3.51 µM
TGI (HCT-116 colon): 20.2 µM and 14.2 µM
GI50 (NCI-H522 lung): 4.18 µM
TGI (NCI-H522 lung): 31.5 µM and 19.6 µM
GI50 (SN12C renal): 13.1 µM
TGI (SN12C renal): 30.6 µM and 29 µM
GI50 (PC-3 prostate): 23.2 µM
TGI (PC-3 prostate): 25.1 µM and 82 µM
GI50 (CCRF-CEM leukemia): 3.72 µM
GI50 (HCC-2998 colon): 14.2 µM
TGI (HCC-2998 colon): 33.2 µM and 28.6 µM
TGI (SK-MEL-2 melanoma): 32.2 µM and 35.3 µM
GI50 (RPMI-8226 leukemia): 3.93 µM
TGI (RPMI-8226 leukemia): > 100 µM and 25.3 µM
GI50 (HL-60(TB) leukemia): 14.6 µM
TGI (HL-60(TB) leukemia): 61.2 µM and > 100 µM
GI50 (NCI/ADR-RES ovarian): 8.33 µM
TGI (NCI/ADR-RES ovarian): > 100 µM and 93.1 µM
TGI (DU-145 prostate): 24.4 µM and 26.4 µM
GI50 (SK-MEL-5 melanoma): 14.5 µM
TGI (SK-MEL-5 melanoma): 31.4 µM and 27.9 µM
GI50 (SF-539 CNS): 16.4 µM
TGI (SF-539 CNS): 25.7 µM and 36.1 µM
GI50 (NCI-H460 lung): 14.3 µM
TGI (NCI-H460 lung): 32.5 µM and 37.5 µM
GI50 (OVCAR-3 ovarian): 7.38 µM
TGI (OVCAR-3 ovarian): 25.3 µM and 26.8 µM
GI50 (UACC-62 melanoma): 11.7 µM
TGI (UACC-62 melanoma): 27.1 µM and 27.3 µM
TGI (SNB-19 CNS): 24.6 µM and 26.7 µM
GI50 (SK-OV-3 ovarian): 37.8 µM
TGI (SK-OV-3 ovarian): 29.5 µM and > 100 µM
GI50 (NCI-H23 lung): 15.8 µM
TGI (NCI-H23 lung): 50.1 µM and 41.3 µM
TGI (A498 renal): 38.6 µM and 32.2 µM
GI50 (OVCAR-5 ovarian): 21.4 µM
TGI (OVCAR-5 ovarian): 33.5 µM and 44.1 µM
TGI (UO-31 renal): 27.2 µM and 27.3 µM
TGI (SR leukemia): > 100 µM and 58.3 µM
TGI (OVCAR-8 ovarian): 39.6 µM and 39.2 µM
TGI (COLO 205 colon): 31.6 µM and 34.8 µM
GI50 (HOP-62 NSCLC): 19.3 µM
TGI (HOP-62 NSCLC): 31.1 µM and 43 µM
GI50 (HCT-15 colon): 5.23 µM
TGI (HCT-15 colon): 34.9 µM and 24.8 µM
GI50 (IGROV1 ovarian): 15.4 µM
TGI (IGROV1 ovarian): 49.7 µM and 43.7 µM
GI50 (MALME-3M melanoma): 18.7 µM
TGI (MALME-3M melanoma): 35.1 µM and 38 µM
GI50 (HS 578T breast): 42.3 µM
TGI (HS 578T breast): 65 µM and > 100 µM

COc1cc(/C=C/C2=NN(c3cccc(S(=O)(=O)O)c3)C3(C2)SCC(=O)N3c2nc3ccccc3s2)cc(OC)c1OC (stereo not given)
TGI (RXF 393 renal): > 100 µM
TGI (BT-549 breast): > 100 µM
TGI (U251 CNS): > 100 µM
TGI (MDA-MB-231 breast): > 100 µM
TGI (SK-MEL-28 melanoma): > 100 µM
TGI (HT29 colon): > 100 µM
TGI (MDA-MB-435): 50.2 µM
TGI (K-562 leukemia): > 100 µM
TGI (SNB-75 CNS): > 100 µM
TGI (ACHN renal): > 100 µM
TGI (MCF7 breast): > 100 µM
TGI (786-0 renal): 37.5 µM
TGI (CAKI-1 renal): > 100 µM
TGI (OVCAR-4 ovarian): > 100 µM
TGI (M14 melanoma): > 100 µM
TGI (A549 NSCLC): > 100 µM
TGI (SF-268 CNS): > 100 µM
TGI (KM12 colon): > 100 µM
TGI (EKVX NSCLC): > 100 µM
TGI (LOX IMVI melanoma): 40.7 µM
TGI (T-47D breast): 47.8 µM
TGI (SW-620 colon): > 100 µM
TGI (TK-10 renal): 93.3 µM
TGI (HOP-92 NSCLC): > 100 µM
TGI (UACC-257 melanoma): > 100 µM
TGI (MOLT-4 leukemia): > 100 µM
TGI (MDA-N): > 100 µM
TGI (NCI-H226 lung): > 100 µM
TGI (HCT-116 colon): > 100 µM
TGI (NCI-H522 lung): 38.4 µM
TGI (SN12C renal): > 100 µM
TGI (PC-3 prostate): > 100 µM
TGI (CCRF-CEM leukemia): 75.1 µM
TGI (HCC-2998 colon): > 100 µM
TGI (SK-MEL-2 melanoma): > 100 µM
TGI (RPMI-8226 leukemia): 48.9 µM
TGI (HL-60(TB) leukemia): > 100 µM
TGI (NCI/ADR-RES ovarian): > 100 µM
TGI (DU-145 prostate): > 100 µM
TGI (SK-MEL-5 melanoma): > 100 µM
TGI (SF-539 CNS): > 100 µM
TGI (NCI-H460 lung): > 100 µM
TGI (UACC-62 melanoma): > 100 µM
TGI (SNB-19 CNS): > 100 µM
TGI (NCI-H23 lung): > 100 µM
TGI (A498 renal): > 100 µM
TGI (OVCAR-5 ovarian): > 100 µM
TGI (UO-31 renal): > 100 µM
TGI (SR leukemia): 66.2 µM
TGI (OVCAR-8 ovarian): > 100 µM
TGI (COLO 205 colon): > 100 µM
TGI (HCT-15 colon): > 100 µM
TGI (IGROV1 ovarian): > 100 µM
TGI (MALME-3M melanoma): > 100 µM
TGI (HS 578T breast): > 100 µM

From PubChem BioAssay (NCI)
